Where two headings read alike, the source gives them in different places.
Tests used:
E. coli MurC = E. coli MurC (Escherichia coli, UniProt P17952); test: Malachite green inhibition assay, MurC; assay type: biochemical; conditions: for remaining activity at 100 µM: 0.25 h, read-out: RA [%] at 100 µM MurC
Protocol: (§1) Inhibition of the Mur ligases was determined using the malachite green assay, with slight modifications.
(§2) In all cases, the final concentration of DMSO was 5% (v/v). After incubation for 15 min at 37 °C, the enzyme reaction was terminated by addition of 100 µM Biomol green reagent, and the absorbance was measured at 650 nm after 5 min. All of the experiments were run in duplicate. Residual activities were calculated with respect to control assays without the tested compounds, but with the 5% DMSO carrier.
(§3) The published kinase inhibitor set compounds were evaluated for inhibition of MurC, D and F ligases from E. coli using the Malachite green assay, which detects orthophosphate generated during enzymatic reactions. To avoid non-specific inhibition due to aggregate formation, all of the compounds were tested in the presence of detergent (0.005% Triton-X114). The data are presented as the residual activities of these Mur ligases in the presence of 100 µM of each test compound (Supporting Information Table S1). […] Additionally, regarding the data of profiled compounds in large panels of human kinase assays[41]

E. coli MurF = E. coli MurF (Escherichia coli, UniProt P11880); test: biochemical; conditions: for remaining activity at 100 µM: 0.25 h, read-out: RA [%] at 100 µM MurF
Chain of E. coli MurF (P11880 whole entry): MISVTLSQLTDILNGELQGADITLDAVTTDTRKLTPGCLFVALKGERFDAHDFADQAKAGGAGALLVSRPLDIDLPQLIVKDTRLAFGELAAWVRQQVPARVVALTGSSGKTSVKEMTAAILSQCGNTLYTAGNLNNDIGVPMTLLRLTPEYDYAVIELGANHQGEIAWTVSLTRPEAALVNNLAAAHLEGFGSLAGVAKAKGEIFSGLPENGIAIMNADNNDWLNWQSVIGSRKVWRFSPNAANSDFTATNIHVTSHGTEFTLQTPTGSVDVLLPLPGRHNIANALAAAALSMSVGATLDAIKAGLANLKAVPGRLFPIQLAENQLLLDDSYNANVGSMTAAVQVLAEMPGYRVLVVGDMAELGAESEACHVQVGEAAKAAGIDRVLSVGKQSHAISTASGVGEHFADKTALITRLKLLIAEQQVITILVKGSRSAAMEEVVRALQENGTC
Protocol: as §1, §2, §3

E. coli MurD = E. coli MurD (Escherichia coli, UniProt P14900); test: biochemical; conditions: for remaining activity at 100 µM: 0.25 h, Table S1, PKIS screening, read-out: RA [%] at 100 µM MurD
Chain of E. coli MurD (P14900 whole entry): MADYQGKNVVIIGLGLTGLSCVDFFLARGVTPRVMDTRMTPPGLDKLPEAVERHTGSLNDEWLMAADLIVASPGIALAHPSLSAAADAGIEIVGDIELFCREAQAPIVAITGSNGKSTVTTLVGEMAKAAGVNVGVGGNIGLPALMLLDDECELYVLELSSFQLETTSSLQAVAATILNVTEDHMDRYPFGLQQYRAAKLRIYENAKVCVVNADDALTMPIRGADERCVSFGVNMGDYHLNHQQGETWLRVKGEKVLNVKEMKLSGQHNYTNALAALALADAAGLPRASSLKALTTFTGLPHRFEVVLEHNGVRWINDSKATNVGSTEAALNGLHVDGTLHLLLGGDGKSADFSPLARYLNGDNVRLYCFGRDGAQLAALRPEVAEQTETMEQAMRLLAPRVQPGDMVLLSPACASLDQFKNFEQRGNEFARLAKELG
Protocol: as §1, §2
The published kinase inhibitor set compounds were evaluated for inhibition of MurC, D and F ligases from E. coli using the Malachite green assay, which detects orthophosphate generated during enzymatic reactions. To avoid non-specific inhibition due to aggregate formation, all of the compounds were tested in the presence of detergent (0.005% Triton-X114). The data are presented as the residual activities of these Mur ligases in the presence of 100 µM of each test compound (Supporting Information Table S1).

Chain of E. coli MurC (P17952 whole entry): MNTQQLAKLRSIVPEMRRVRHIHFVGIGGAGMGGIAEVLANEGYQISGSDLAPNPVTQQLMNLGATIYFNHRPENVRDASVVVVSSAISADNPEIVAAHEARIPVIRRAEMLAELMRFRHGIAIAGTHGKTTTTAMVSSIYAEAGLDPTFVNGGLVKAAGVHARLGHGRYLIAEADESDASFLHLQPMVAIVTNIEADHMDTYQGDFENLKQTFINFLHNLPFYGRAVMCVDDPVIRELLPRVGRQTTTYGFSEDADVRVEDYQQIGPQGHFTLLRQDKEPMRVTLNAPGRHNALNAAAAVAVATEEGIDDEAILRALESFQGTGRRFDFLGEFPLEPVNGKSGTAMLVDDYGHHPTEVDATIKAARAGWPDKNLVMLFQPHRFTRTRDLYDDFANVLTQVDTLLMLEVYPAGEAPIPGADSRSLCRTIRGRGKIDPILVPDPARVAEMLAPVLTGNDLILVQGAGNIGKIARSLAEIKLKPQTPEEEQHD

Compound	remaining activity at 100 µM (E. coli MurC; Table S1, PKIS screening)	remaining activity at 100 µM (E. coli MurF; Table S1, PKIS screening)	remaining activity at 100 µM (E. coli MurD)	remaining activity at 100 µM (E. coli MurC)	remaining activity at 100 µM (E. coli MurF)	RA [%] at 100 µM MurC (E. coli MurC; Table S1, PKIS screening)	RA [%] at 100 µM MurF (E. coli MurF; Table S1, PKIS screening)	RA [%] at 100 µM MurD (E. coli MurD)
O=C1Nc2ccc(C(=O)c3ccco3)cc2C1=Cc1cc(Cl)c(O)c(Cl)c1 [GW406108X]	74%	79%	85%	–	–	–	–	–
COC(=O)c1cncc(/C=C/c2c(C)cc(O)cc2C)c1 [GW406731X]	98%	81%	69%	–	–	–	–	–
Nc1nc(-c2ccc3c(c2)C(=Cc2cc(Br)c(O)c(Br)c2)C(=O)N3)cs1 [GW407323A]	64%	41%	54%	–	–	–	–	–
COc1cc2ncnc(Nc3ccc(C)c(O)c3)c2cc1OC [GW410563A]	60%	100%	92%	–	–	–	–	–
CN(C)c1ccc2c(c1)/C(=C/Nc1ccc(S(N)(=O)=O)cc1)C(=O)N2 [GW416469X]	76%	79%	89%	–	–	–	–	–
CC(C)COC(=O)c1ccc2c(c1)/C(=C/Nc1ccc(S(N)(=O)=O)cc1)C(=O)N2 [GW416981X]	60%	67%	100%	–	–	–	–	–
O=C1Nc2ccc(-c3cccnc3)cc2C1=Cc1cc(Br)c(O)c(Br)c1 [GW429374A]	30%	16%	51%	–	–	–	–	–
CNC(=O)Oc1cc(C)c(/C=C/c2cncc(C(=O)NC)c2)c(C)c1 [GW432441X]	–	–	69%	68%	87%	–	–	–
Fc1ccc(-c2nn3ccccc3c2-c2ccncc2)cc1 [GW434756X]	74%	94%	68%	–	–	–	–	–
Cc1cc(O)cc(C)c1/C=C/c1cncc(C(N)=O)c1 [GW435821X]	89%	75%	89%	–	–	–	–	–
Cc1cc(O)cc(C)c1/C=C/c1cncc(C(=O)OC(C)(C)C)c1 [GW439255X]	75%	69%	96%	–	–	–	–	–
Cc1ccc(O)cc1Nc1ccnc2cc(-c3ccccn3)ccc12 [GW440139B]	–	–	–	–	–	73%	66%	73
Cn1cc(C=C2C(=O)Nc3cccnc32)c2ccccc21 [GW441756X]	75%	89%	99%	–	–	–	–	–
Cc1cc(O)cc(C)c1/C=C/c1cncc(-c2nn[nH]n2)c1 [GW441806A]	70%	90%	91%	–	–	–	–	–
COc1ccccc1-c1cc(/C=C2\C(=O)Nc3ncc(Br)cc32)cc(Br)c1O [GW442130X]	100%	67%	84%	–	–	–	–	–
CNC(=O)c1cncc(/C=C/c2c(C)cccc2C)c1 [GW445012X]	85%	54%	83%	–	–	–	–	–
CNC(=O)c1cncc(/C=C/c2c(Cl)cccc2Cl)c1 [GW445014X]	81%	77%	80%	–	–	–	–	–
CNC(=O)c1cncc(/C=C/c2ccccc2C)c1 [GW445015X]	100%	85%	91%	–	–	–	–	–
CNC(=O)c1cncc(/C=C/c2ccccc2Cl)c1 [GW445017X]	68%	90%	87%	–	–	–	–	–
CCc1cccc(CC)c1/C=C/c1cncc(C(=O)NC)c1 [GW450241X]	67%	76%	74%	–	–	–	–	–
CS(=O)(=O)CCNCc1ccc(-c2ccc3ncnc(Nc4ccc(OCc5ccccc5)cc4)c3c2)o1 [GW458787A]	68%	66%	58%	–	–	–	–	–
Cc1cc(-c2ccccn2)cc(C)c1/C=C/c1cncc(-c2nn[nH]n2)c1 [GW459057A]	59%	76%	83%	–	–	–	–	–
CS(=O)(=O)CCNCc1nc(-c2ccc3ncnc(Nc4ccc(F)c(Cl)c4)c3c2)cs1 [GW461104A]	88%	84%	73%	–	–	–	–	–

Compound	remaining activity at 100 µM (E. coli MurC; Table S1, PKIS screening)	remaining activity at 100 µM (E. coli MurF; Table S1, PKIS screening)	remaining activity at 100 µM (E. coli MurD)	remaining activity at 100 µM (E. coli MurC)	remaining activity at 100 µM (E. coli MurF)	RA [%] at 100 µM MurC (E. coli MurC; Table S1, PKIS screening)	RA [%] at 100 µM MurF (E. coli MurF; Table S1, PKIS screening)	RA [%] at 100 µM MurD (E. coli MurD)
COc1cc(C=NNc2ncnc3c2cnn3-c2ccccc2)ccc1O [GW513184X]	89%	78%	86%	–	–	–	–	–
CCn1c(-c2nonc2N)nc2ccccc21 [GW549034X]	–	–	100%	–	–	70%	93%	–
c1ccc(Nc2ncc(-c3ccccc3)o2)cc1 [GW549390X]	85%	93%	92%	–	–	–	–	–
N#Cc1ccc2c(-c3ccnc(NC4CC4)n3)c(-c3ccc(F)cc3)nn2c1 [GW561436X]	87%	77%	76%	–	–	–	–	–
CS(=O)(=O)CCNCc1coc(-c2ccc3ncnc(Nc4ccc(OCc5ccccc5)cc4)c3c2)c1 [GW566221B]	69%	82%	69%	–	–	–	–	–
CS(=O)(=O)CCNCc1ccc(-c2ccc3ncnc(Nc4ccc(OCc5cccc(C(F)(F)F)c5)cc4)c3c2)o1 [GW567808A]	56%	100%	34%	–	–	–	–	–
Nc1nccc(-c2c(-c3ccc(F)cc3)nn3cc(C(F)(F)F)ccc23)n1 [GW568326X]	68%	78%	90%	–	–	–	–	–
OCCCNc1nccc(-c2c(-c3ccc(F)cc3)nn3cc(C(F)(F)F)ccc23)n1 [GW569293E]	54%	72%	89%	–	–	–	–	–
NS(=O)(=O)c1ccc(Nc2ncc(-c3ccccc3)o2)cc1 [GW572399X]	80%	74%	100%	–	–	–	–	–
CCN(CC)S(=O)(=O)c1ccc(OC)c(Nc2ncc(-c3ccccc3)o2)c1 [GW572401X]	63%	82%	60%	–	–	–	–	–
N#Cc1c(NC(=O)c2ccccc2F)sc2c1CCCC2 [GW572738X]	88%	100%	91%	–	–	–	–	–
CS(=O)(=O)CCNCc1ccc(-c2ccc3ncnc(Nc4ccc(OCc5ccccc5)c(C(F)(F)F)c4)c3c2)o1 [GW574782A]	83%	100%	60%	–	–	–	–	–
CS(=O)(=O)CCNCc1ccc(-c2ccc3ncnc(Nc4ccc(OCc5ccccc5)c(Cl)c4)c3c2)o1 [GW574783B]	58%	79%	37%	–	–	–	–	–
COc1ccc(Nc2ncc(-c3ccccc3)o2)cc1OC [GW575533A]	79%	71%	93%	–	–	–	–	–
Cc1ccc(Nc2ccnc(Nc3cccc(C(N)=O)c3)n2)cc1O [GW575808A]	100%	100%	89%	–	–	–	–	–
CS(=O)(=O)CCNCc1ccc(-c2ccc3ncnc(Nc4ccc(OCc5cccc(F)c5)c(C(F)(F)F)c4)c3c2)o1 [GW576484X]	100%	100%	55%	–	–	–	–	–
[O-][S+]1CCN(Cc2ccc(-c3ccc4ncnc(Nc5ccc(OCc6cccc(F)c6)c(Cl)c5)c4c3)o2)CC1 [GW576609A]	71%	78%	54%	–	–	–	–	–
[O-][S+]1CCN(Cc2ccc(-c3ccc4ncnc(Nc5ccc(OCc6ccccc6)c(F)c5)c4c3)o2)CC1 [GW576924A]	39%	58%	85%	–	–	–	–	–
COc1ccccc1Nc1ncc(-c2ccccc2)o1 [GW577921A]	71%	76%	84%	–	–	–	–	–
CS(=O)(=O)CCNCc1ccc(-c2ccc3ncnc(Nc4ccc(OCc5ccccc5)c(Br)c4)c3c2)o1 [GW580496A]	95%	90%	48%	–	–	–	–	–
CCS(=O)(=O)c1ccc(OC)c(Nc2ncc(-c3cccc(OC)c3)o2)c1 [GW580509X]	100%	93%	82%	–	–	–	–	–
NC(=O)c1ccc2c(-c3ccnc(NCCCO)n3)c(-c3ccc(F)cc3)nn2c1 [GW581744X]	73%	79%	74%	–	–	–	–	–

Reference: PMC6522912, “Evaluation of the published kinase inhibitor set to identify multiple inhibitors of bacterial ATP-dependent mur ligases” (Journal of Enzyme Inhibition and Medicinal Chemistry, 2019)
